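In this assay, cells in 96-well plates receive the compound at five concentrations for 48 hours. Endpoints are linearly interpolated between the surrounding concentrations. GI50: concentration for 50% inhibition of growth.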 Activity calls are given as the source filed them. No stated cut-off is given here; in the data, active = GI50 up to about 1.1 µM and inactive = higher.

The text below walks through data of ChEMBL document CHEMBL1201862, “PubChem BioAssay data set” (2004).

Holding throughout (test): inhibition of tumour cell growth, NCI panel, 48 h
Assay [1] relates to A549.
Assay [2] has as its system CAKI-1.
The subject of assay [3] is DU-145.
Assay [4] deals with EKVX.
The test system of assay [5] is HOP-62.
Assay [6] deals with HT-29.
The test system of assay [7] is LOX IMVI.
Assay [8] concerns M14.
Assay [9] deals with NCI-H23.
Assay [10] has as its system OVCAR-4.
Assay [11] deals with OVCAR-5.
In assay [12] the test system is OVCAR-8.
Assay [13] has as its system SK-MEL-2.
The test system of assay [14] is SK-OV-3.
Assay [15] deals with SN12C.
Assay [16] deals with SNB-19.
The subject of assay [17] is SR.
Assay [18] has as its system TK-10.
Assay [19] deals with UACC-257.
Assay [20] has as its system T47D.

`COc1cc2c(c3c1c(=O)c1ccccc1n3C)C=CC1(CCCC1)O2`: the GI50 in assay [1] is 19.7 µM (inactive); in [2], 2.54 µM (inactive); in assay [3], 17.6 µM (inactive); in [4] it was 13.5 µM (inactive); in [5] it was 12.8 µM (inactive); in assay [6] it was 7.05 µM (inactive). The GI50 was 1.02 µM (active) in [7]; 13.3 µM (inactive) in [8]; 12.9 µM (inactive) in assay [9]; 12.2 µM (inactive) in assay [10]; 12.9 µM (inactive) in assay [11]; 18.4 µM (inactive) in assay [12]. Further, the GI50 in assay [13] is 14 µM (inactive); in assay [14], 21.6 µM (inactive); in assay [15], 19.1 µM (inactive); in assay [16] it was 18.5 µM (inactive); in assay [17], 7.94 µM (inactive); in [18], 15.6 µM (inactive). Moreover, in assay [19], the GI50 is 15.9 µM (inactive).
As to `O=C(CCN1CCOCC1)c1ccc(Oc2ccc(F)cc2)cc1`, the GI50 is > 100 µM (inactive) in assay [1]; 18 µM (inactive) in assay [2]; 36 µM (inactive) in assay [3]; 19 µM (inactive) in [4]; 50.2 µM (inactive) in [5]; 18.7 µM (inactive) in [6]. For the same compound, the GI50 in [7] was 21.8 µM (inactive); in assay [8] it was 18.4 µM (inactive); in assay [9] it was 26.7 µM (inactive); in assay [10], 33.6 µM (inactive); in assay [11] it was 24.2 µM (inactive); in assay [12] it was 19.4 µM (inactive). The GI50 in [13] is 23.6 µM (inactive); in [14], > 100 µM (inactive); in assay [15] it was 30.9 µM (inactive); in assay [16] it was > 100 µM (inactive); in assay [20], 18.9 µM (inactive); in assay [18], 17.9 µM (inactive). In addition, in [19], the GI50 is 17.7 µM (inactive).
As to `Cc1cc(NS(=O)(=O)c2ccc(NO)cc2)no1`, the GI50 in assay [1] is > 100 µM (inactive); in [2] it was > 100 µM (inactive); in assay [3] it was > 100 µM (inactive); in assay [4] it was > 100 µM (inactive); in assay [5], > 100 µM (inactive); in [6], 41.3 µM (inactive). In addition, the GI50 in assay [7] was 17.9 µM (inactive); in assay [8], 70.6 µM (inactive); in [10], 67.3 µM (inactive); in assay [11] it was > 100 µM (inactive); in assay [12], 41.1 µM (inactive); in [13], > 100 µM (inactive). For the same compound, the GI50 is > 100 µM (inactive) in assay [14]; 19.5 µM (inactive) in [15]; > 100 µM (inactive) in assay [16]; 23.4 µM (inactive) in assay [17]; > 100 µM (inactive) in assay [18]; > 100 µM (inactive) in assay [19].
`Cc1c(-c2nc3ccccc3[nH]2)c(=O)n(-c2ccccc2)n1C`: the GI50 in [1], in assay [2], in [3], in assay [4], in [5] and in assay [6] was > 100 µM (inactive) in each case. In addition, the GI50 in [7], in assay [8], in assay [9], in [10], in [12] and in assay [13] was > 100 µM (inactive) in each case. In addition, the GI50 in assay [14], in assay [15], in [16], in assay [20], in assay [18] and in assay [19] was > 100 µM (inactive) throughout.
As for `CO[P@]1(=O)O[C@@H](c2ccccc2)[C@H](O)[C@]1(O)c1ccccc1`, the GI50 in assay [1], in assay [2], in assay [3], in [4], in assay [6] and in [7] was > 100 µM (inactive) each time. Also, the GI50 in assay [8], in assay [9], in assay [10], in assay [11], in assay [12] and in assay [13] was > 100 µM (inactive) in each case. Also, the GI50 in [14], in [15], in assay [16], in assay [20], in assay [18] and in assay [19] was > 100 µM (inactive) in each case.
Take `O=[N+]([O-])c1cccc(-c2ncnc(-c3cccc([N+](=O)[O-])c3)n2)c1`: the GI50 in assay [1] is > 100 µM (inactive); in assay [2], 18.4 µM (inactive); in assay [3], > 100 µM (inactive); in assay [4], > 100 µM (inactive); in assay [5], 17.8 µM (inactive); in assay [6] it was > 100 µM (inactive). The GI50 in assay [7] is > 100 µM (inactive); in assay [8], > 100 µM (inactive); in assay [9] it was 58.5 µM (inactive); in assay [11], > 100 µM (inactive); in [12], > 100 µM (inactive); in [13], 51.5 µM (inactive). The GI50 was 27.1 µM (inactive) in assay [14]; > 100 µM (inactive) in assay [15]; 81.8 µM (inactive) in assay [20]; 44.5 µM (inactive) in [18]; 38.7 µM (inactive) in [19].
For `CC1(C)[C@@H]2CC[C@]1(C)[C@H](OC(=O)CSC#N)C2`, the GI50 in assay [1], in assay [2], in [3], in assay [4], in assay [5] and in assay [6] was > 100 µM (inactive) in each case. Moreover, the GI50 in assay [7] was 35.2 µM (inactive); in assay [8] it was 47.1 µM (inactive); in [9], > 100 µM (inactive); in assay [10], > 100 µM (inactive); in [11], > 100 µM (inactive); in assay [12] it was 34.2 µM (inactive). In addition, the GI50 in assay [13], in assay [14], in [15], in [16], in assay [20] and in [18] was > 100 µM (inactive) throughout. In addition, the GI50 in assay [19] was > 100 µM (inactive).
For `COC(=O)C1=Cc2cc(OC)c(O)cc2[C@@H](c2ccc(O)c(OC)c2)[C@@H]1C(=O)OC`, the GI50 in [1], in [3], in assay [4], in [5], in [6] and in [7] was > 100 µM (inactive) throughout. Besides, the GI50 in [8], in assay [9], in assay [11], in assay [12], in assay [15] and in assay [16] was > 100 µM (inactive) throughout. Further, the values for the GI50 in assay [17], in [20] and in [19] were > 100 µM (inactive), 60.5 µM (inactive) and > 100 µM (inactive), respectively.
`Cn1c(=O)c2c(ncn2CCSS(=O)(=O)O)n(C)c1=O`: the GI50 is > 100 µM (inactive) in [1]; > 100 µM (inactive) in assay [2]; > 100 µM (inactive) in [3]; 72.6 µM (inactive) in assay [4]; 86.9 µM (inactive) in [5]; 99.5 µM (inactive) in [6]. Further, the GI50 in [8] is 72.3 µM (inactive); in [9] it was > 100 µM (inactive); in assay [10], > 100 µM (inactive); in assay [11] it was > 100 µM (inactive); in assay [12] it was > 100 µM (inactive); in assay [13], 55.3 µM (inactive). For the same compound, the GI50 in [14], in assay [15], in [16], in assay [20], in assay [18] and in [19] was > 100 µM (inactive) in each case.
For `C=C(CC[C@@H](C(=O)O)[C@H]1[C@H](O)C[C@@]2(C)C3=CC[C@@H](C(=C)C)[C@](C)(CCC(=O)O)C3=CC[C@]12C)C(C)C` [PORICOIC ACID A], the GI50 was 18.7 µM (inactive) in assay [1]; 15.2 µM (inactive) in [2]; 20.6 µM (inactive) in assay [3]; 17.6 µM (inactive) in assay [4]; 17.6 µM (inactive) in assay [6]; 19.3 µM (inactive) in assay [7]. For the same compound, the GI50 in assay [8] is 17.9 µM (inactive); in assay [9], 16.9 µM (inactive); in [10], 21.1 µM (inactive); in assay [11], 16.5 µM (inactive); in assay [12], 19.5 µM (inactive); in assay [13], 18.5 µM (inactive). In addition, the GI50 in [14] was 18 µM (inactive); in assay [15], 16.7 µM (inactive); in assay [16], 17.7 µM (inactive); in assay [20], 23.8 µM (inactive); in [18], 17.8 µM (inactive); in [19] it was 16.4 µM (inactive).
In the case of `CCCCCCCCCCCCCCN` [TETRADECYLAMINE], the GI50 in assay [2], in assay [3], in assay [4], in [5], in assay [6] and in assay [7] was > 100 µM (inactive) in each case. Moreover, the GI50 in assay [9], in assay [10], in assay [11], in [12], in assay [13] and in [14] was > 100 µM (inactive) each time. The GI50 in assay [15], in [20], in assay [18] and in assay [19] was > 100 µM (inactive) in each case.
